Laboratory results taken from PubChem BioAssay (NCI).
Values joined by “and” are separate entries in the source; they are usually repeats but may differ in a detail not shown here. Equal values may be shown once.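 All cell lines were grown in 96-well plates and treated with compound for 48 hours. At the GI50, growth is halved. TGI: total growth inhibition.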 Where a SMILES comes first, the peptide text is derived from it. The star is where a group is joined. Fmoc = O=C(OCC1c2ccccc2-c2ccccc21)*; Boc = CC(C)(C)OC(=O)*; OtBu = CC(C)(C)O*

Key:
Test in all cases: NCI-60 cell line screen, 48 h
[1] = test system: UO-31 renal
[2] = test system: MALME-3M melanoma
[3] = test system: NCI-H460 lung
[4] = test system: HOP-92 NSCLC
[5] = test system: A549 NSCLC
[6] = test system: K-562 leukemia
[7] = test system: SN12C renal
[8] = test system: KM12 colon
[9] = test system: SF-268 CNS
[10] = test system: SR leukemia
[11] = test system: MDA-MB-435
[12] = test system: BT-549 breast
[13] = test system: MDA-MB-231 breast
[14] = test system: SNB-75 CNS
[15] = test system: OVCAR-3 ovarian
[16] = test system: OVCAR-5 ovarian
[17] = test system: T-47D breast
[18] = test system: SW-620 colon
[19] = test system: 786-0 renal
[20] = test system: TK-10 renal
[21] = test system: MCF7 breast
[22] = test system: SK-MEL-2 melanoma
[23] = test system: SK-MEL-5 melanoma
[24] = test system: MDA-N
[25] = test system: SK-MEL-28 melanoma
[26] = test system: PC-3 prostate
[27] = test system: RXF 393 renal
[28] = test system: DU-145 prostate
[29] = test system: SK-OV-3 ovarian
[30] = test system: U251 CNS
[31] = test system: NCI-H226 lung
[32] = test system: NCI-H522 lung
[33] = test system: RPMI-8226 leukemia
[34] = test system: SF-295 CNS
[35] = test system: NCI/ADR-RES ovarian
[36] = test system: HCT-116 colon
[37] = test system: OVCAR-4 ovarian
[38] = test system: UACC-62 melanoma
[39] = test system: NCI-H23 lung
[40] = test system: IGROV1 ovarian
[41] = test system: MOLT-4 leukemia
[42] = test system: SF-539 CNS
[43] = test system: OVCAR-8 ovarian
[44] = test system: CAKI-1 renal
[45] = test system: HL-60(TB) leukemia
[46] = test system: HOP-62 NSCLC
[47] = test system: HS 578T breast
[48] = test system: ACHN renal
[49] = test system: LOX IMVI melanoma
[50] = test system: A498 renal
[51] = test system: HT29 colon
[52] = test system: EKVX NSCLC
[53] = test system: HCT-15 colon
[54] = test system: M14 melanoma
[55] = test system: COLO 205 colon
[56] = test system: SNB-19 CNS
[57] = test system: HCC-2998 colon
[58] = test system: UACC-257 melanoma
[59] = test system: CCRF-CEM leukemia

Cc1ccc(C2(C)CC/C(=N/N=C3/CCC(C)(c4ccc(C)c(C)c4)c4cc(C)c(C)cc43)c3cc(C)c(C)cc32)cc1C (stereo not given)
TGI [1]: > 100 µM | TGI [2]: > 100 µM | TGI [3]: > 100 µM | TGI [4]: > 100 µM | TGI [5]: > 100 µM | TGI [6]: > 100 µM | TGI [7]: > 100 µM | TGI [8]: > 100 µM | TGI [9]: > 100 µM | TGI [10]: > 100 µM | TGI [11]: > 100 µM | TGI [12]: > 100 µM | TGI [13]: > 100 µM | TGI [14]: > 100 µM | TGI [15]: > 100 µM | TGI [16]: > 100 µM | TGI [17]: > 100 µM | TGI [18]: > 100 µM | TGI [19]: > 100 µM | TGI [20]: > 100 µM | TGI [21]: > 100 µM | TGI [22]: > 100 µM | TGI [23]: > 100 µM | TGI [24]: > 100 µM | TGI [25]: > 100 µM | TGI [26]: > 100 µM | TGI [27]: > 100 µM | TGI [28]: > 100 µM | TGI [29]: > 100 µM | TGI [30]: > 100 µM | TGI [31]: > 100 µM | TGI [32]: > 100 µM | TGI [33]: > 100 µM | TGI [34]: > 100 µM | TGI [35]: > 100 µM | TGI [36]: > 100 µM | TGI [37]: > 100 µM | TGI [38]: > 100 µM | TGI [39]: > 100 µM | TGI [40]: > 100 µM | TGI [41]: > 100 µM | TGI [42]: > 100 µM | TGI [43]: > 100 µM | TGI [44]: > 100 µM | TGI [45]: > 100 µM | TGI [46]: > 100 µM | TGI [47]: > 100 µM | TGI [48]: > 100 µM | TGI [49]: > 100 µM | TGI [50]: > 100 µM | TGI [51]: > 100 µM | TGI [52]: > 100 µM | TGI [53]: > 100 µM | TGI [54]: > 100 µM | TGI [55]: > 100 µM | TGI [56]: > 100 µM

CC(C)(C)OC(=O)CCC(NC(=O)OCC1c2ccccc2-c2ccccc21)C(=O)NC(Cc1c[nH]c2ccccc12)C(=O)NC(CCCCNC(=O)OC(C)(C)C)C(=O)N1CCCC1C(=O)NCC(N)=O (stereo not given) (Fmoc-E(OtBu)WK(Boc)PG-NH2; configuration not given here)
TGI [57]: > 100 µM | GI50 [1]: 3.85 µM and 14.4 µM | TGI [1]: 14.7 µM and 28.1 µM | TGI [2]: 33.9 µM and 78.9 µM | TGI [3]: 30.4 µM and 68.9 µM | TGI [4]: 31.4 µM and 35.7 µM | GI50 [5]: 17.6 µM and > 100 µM | TGI [5]: 31.5 µM and > 100 µM | TGI [6]: > 100 µM | GI50 [7]: 18.3 µM and 67.4 µM | TGI [7]: 32.2 µM and > 100 µM | GI50 [8]: 16.2 µM and 35.9 µM | TGI [8]: 33.1 µM and > 100 µM | GI50 [9]: 21.5 µM and 44.7 µM | TGI [9]: 37.2 µM and > 100 µM | TGI [10]: 52.7 µM and > 100 µM | GI50 [11]: 18 µM and 42.7 µM | TGI [11]: 31.9 µM and > 100 µM | TGI [12]: 29.5 µM and 38.3 µM | TGI [13]: 25.2 µM and 28.9 µM | TGI [14]: 52.1 µM and 29.9 µM | TGI [15]: 37.4 µM and 51 µM | GI50 [16]: 45.6 µM and > 100 µM | TGI [16]: > 100 µM | TGI [17]: > 100 µM | GI50 [18]: 19 µM and 46.9 µM | TGI [18]: 33.6 µM and > 100 µM | GI50 [58]: 40.4 µM and 94.9 µM | TGI [58]: > 100 µM | TGI [19]: 31.3 µM and 34.9 µM | GI50 [20]: 36.5 µM and > 100 µM | TGI [20]: > 100 µM | TGI [21]: > 100 µM | TGI [22]: 39.2 µM and 33.5 µM | TGI [23]: 29.7 µM and > 100 µM | TGI [24]: 31.6 µM and > 100 µM | TGI [25]: > 100 µM | GI50 [26]: 16.4 µM and > 100 µM | TGI [26]: 29.9 µM and > 100 µM | TGI [27]: 28.3 µM and 50.4 µM | GI50 [28]: 16.1 µM and > 100 µM | TGI [28]: 29.6 µM and > 100 µM | TGI [29]: > 100 µM and 93.9 µM | TGI [30]: 31.1 µM and 31 µM | GI50 [59]: 67.3 µM and 31.5 µM | TGI [59]: > 100 µM and 73.7 µM | GI50 [31]: 15.3 µM and 78.8 µM | TGI [31]: 32.5 µM and > 100 µM | TGI [32]: 4.16 µM | TGI [33]: 35.6 µM and > 100 µM | TGI [34]: > 100 µM | GI50 [35]: 16.9 µM and 68.5 µM | TGI [35]: 30.6 µM and > 100 µM | GI50 [36]: 18.3 µM and 48.1 µM | TGI [36]: 32.2 µM and > 100 µM | TGI [37]: 25.5 µM and 31.2 µM | TGI [38]: 28.2 µM and 39.9 µM | GI50 [39]: 14.2 µM and 32.7 µM | TGI [39]: 27.2 µM and > 100 µM | TGI [40]: 29.5 µM and > 100 µM | TGI [41]: 61.7 µM and 81.7 µM | TGI [42]: > 100 µM | TGI [43]: 33.4 µM and > 100 µM | GI50 [45]: 3.8 µM and 33.5 µM | TGI [45]: > 100 µM | GI50 [46]: 18 µM and 42.2 µM | TGI [46]: 31.8 µM and > 100 µM | TGI [47]: 59.3 µM and 76.1 µM | TGI [48]: 30 µM and 35 µM | TGI [49]: 24.5 µM and 44.7 µM | TGI [51]: > 100 µM | GI50 [52]: 17.9 µM and > 100 µM | TGI [52]: 34.8 µM and > 100 µM | GI50 [53]: 12.5 µM and 73.9 µM | TGI [53]: 24.9 µM and > 100 µM | TGI [54]: 90.5 µM and > 100 µM | GI50 [55]: 17.1 µM and 41.9 µM | TGI [55]: 32.7 µM and > 100 µM | TGI [56]: 72.9 µM and 40.6 µM
